The values that follow come from ChEMBL document CHEMBL3714750, “Aryl sulfonamides” (2008).

The assay addresses T1, C-C chemokine receptor type 9 (Homo sapiens, UniProt P51686).
T1 sequence (P51686 whole entry): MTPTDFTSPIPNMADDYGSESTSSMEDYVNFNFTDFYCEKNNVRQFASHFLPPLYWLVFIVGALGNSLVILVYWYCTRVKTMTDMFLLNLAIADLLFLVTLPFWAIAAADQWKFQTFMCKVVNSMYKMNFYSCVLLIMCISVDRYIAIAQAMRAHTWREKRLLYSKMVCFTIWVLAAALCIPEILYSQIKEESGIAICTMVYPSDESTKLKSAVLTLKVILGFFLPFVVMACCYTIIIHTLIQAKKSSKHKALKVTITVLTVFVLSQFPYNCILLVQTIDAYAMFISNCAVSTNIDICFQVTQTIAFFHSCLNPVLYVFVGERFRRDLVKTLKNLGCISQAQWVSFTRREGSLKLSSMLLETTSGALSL
In words: Antagonist activity against CCR9 in human MOLT4 cells assessed as inhibition of human recombinant TECK-induced calcium response pre-treated before TECK stimulation by Flou-4-AM dye based FLIPR assay. The format is functional, cell-based, MOLT-4.
In general, IC50 refers to the point on the concentration scale where inhibition reaches its midpoint. For `O=C(c1cc[n+]([O-])cc1)c1cc(Cl)ccc1NS(=O)(=O)c1ccc(-c2ccoc2)cc1`, the half-maximal inhibitory concentration (IC50) is under 1000 nM.

With `C[C@@H]1CN(c2ccc(S(=O)(=O)Nc3ccc(Cl)cc3C(=O)c3ccncc3)cc2)C[C@H](C)O1`, the half-maximal inhibitory concentration (IC50) was under 1000 nM.

In the case of `CC(C)(C)c1ccc(S(=O)(=O)Nc2cc(Cl)ccc2C(=O)c2ccncc2)cc1`, the IC50 is under 1000 nM.

As for `Cc1ccc(C(=O)c2cc(Cl)ccc2NS(=O)(=O)c2ccc(N3C[C@@H](C)O[C@@H](C)C3)cc2)c[n+]1[O-]`, the IC50 was under 1000 nM.

Turning to `Cc1nnc(-c2cccc(S(=O)(=O)Nc3ccc(Cl)cc3C(=O)c3ccncc3)c2)o1`, the IC50 is over 1000 nM.

On to `O=C(c1ccncc1)c1cc(Cl)ccc1NS(=O)(=O)c1ccc(-c2nccs2)cc1`, for which the concentration for half-maximal inhibition (IC50) is over 1000 nM.

As to `Cc1ccc(C(=O)c2cc(Cl)ccc2NS(=O)(=O)c2ccc(OC(F)(F)F)cc2)cn1`, the half-inhibitory concentration (IC50) was under 1000 nM.

Consider `CCOC(=O)CNC(=O)c1cc(Cl)ccc1NS(=O)(=O)c1ccc(OC)cc1`, for which the half-maximal inhibitory concentration (IC50) was over 1000 nM.

For the compound `CC1(c2ccc(S(=O)(=O)Nc3ccc(Cl)cc3C(=O)c3cc[n+]([O-])cc3)cc2)CCOCC1`, the half-maximal inhibitory concentration (IC50) was under 1000 nM.

Consider `Cc1ccc(C(=O)c2cc(Cl)ccc2NS(=O)(=O)c2ccc(-c3ocnc3C)cc2)cn1`, for which the IC50 is under 1000 nM.

Consider `Cc1ccc(C(=O)c2cc(Cl)ccc2NS(=O)(=O)c2ccc(-c3nnc(C)o3)cc2)cn1`, for which the IC50 was over 1000 nM.

For the compound `Cc1ccc(C(=O)c2cc(Cl)ccc2NS(=O)(=O)c2ccc(OC(C)C)cc2)cn1`, the IC50 is under 1000 nM.

Regarding `Cc1cccc(C(=O)c2cc(Cl)ccc2NS(=O)(=O)c2ccc(C(C)(C)c3ncco3)cc2)n1`, the 50% inhibitory concentration (IC50) was under 1000 nM.

Take `CC(C)(c1ccc(S(=O)(=O)Nc2ccc(Cl)cc2C(=O)c2ccncc2)cc1)N1CCCCC1=O`: the half-inhibitory concentration (IC50) is under 1000 nM.

As to `CC(C)(CO)c1ccc(S(=O)(=O)Nc2ccc(Cl)cc2C(=O)c2ccncc2)cc1`, the IC50 was under 1000 nM.

In the case of `CC(C)(C)c1ccc(S(=O)(=O)Nc2ccc(Cl)cc2C(=O)c2cc[n+]([O-])c(Cl)c2)cc1`, the IC50 was under 1000 nM.

In the case of `Cc1cc(C(=O)c2cc(Cl)ccc2NS(=O)(=O)c2ccc(C(C)(C)C)cc2)cc[n+]1[O-]`, the IC50 is under 1000 nM.

On to `O=C(c1cc[n+]([O-])cc1)c1cc(Cl)ccc1NS(=O)(=O)c1ccc(N2CCOCC2)c(F)c1`, for which the concentration for half-maximal inhibition (IC50) is under 1000 nM.

In the case of `CC(C)(C)c1ccc(S(=O)(=O)Nc2ccc(Cl)cc2C(=O)c2ccccn2)cc1`, the IC50 was under 1000 nM.

Regarding `CC(C)(C)c1ccc(S(=O)(=O)Nc2ccc(Cl)cc2C(=O)c2cccnc2)cc1`, the IC50 is under 1000 nM.

Regarding `CN(C)C(=O)CCc1ccc(S(=O)(=O)Nc2ccc(Cl)cc2C(=O)c2ccncc2)cc1`, the IC50 was over 1000 nM.

With `Cc1nnc(-c2ccc(S(=O)(=O)Nc3ccc(Cl)cc3C(=O)c3ccccn3)cc2)o1`, the IC50 was over 1000 nM.

Regarding `O=C(c1ccncc1)c1cc(Cl)ccc1NS(=O)(=O)c1ccc(I)cc1`, the IC50 was under 1000 nM.

Regarding `CS(=O)(=O)c1ccc(S(=O)(=O)Nc2ccc(Cl)cc2C(=O)c2ccncc2)cc1`, the IC50 was over 1000 nM.

`COc1ccc(S(=O)(=O)Nc2ccc(Br)cc2C(=O)c2ccncc2)cc1`: the IC50 was over 1000 nM.

As for `Cn1nnnc1-c1ccc(S(=O)(=O)Nc2ccc(Cl)cc2C(=O)c2ccncc2)cc1`, the IC50 was over 1000 nM.

With `CC(C)(C)c1ccc(S(=O)(=O)Nc2ccc(Cl)cc2C(=O)c2ccnc(Cl)c2)cc1`, the IC50 was under 1000 nM.

As for `Cc1cc(C(=O)c2cc(Cl)ccc2NS(=O)(=O)c2ccc(OC(C)C)cc2)ccn1`, the half-maximal inhibitory concentration (IC50) was under 1000 nM.

Regarding `Cc1ccc(C(=O)c2cc(Cl)ccc2NS(=O)(=O)c2ccc(C3(C)CCOCC3)cc2)c[n+]1[O-]`, the IC50 was under 1000 nM.

`CC(C)(C)OC(=O)n1cccc1-c1ccc(S(=O)(=O)Nc2ccc(Cl)cc2C(=O)c2ccncc2)cc1`: the IC50 is over 1000 nM.

For the compound `O=C(c1ccncc1)c1cc(Cl)ccc1NS(=O)(=O)c1ccc(-c2ccc[nH]2)cc1`, the half-maximal inhibitory concentration (IC50) was over 1000 nM.

Turning to `Cc1nnc(-c2ccc(S(=O)(=O)Nc3ccc(Cl)cc3C(=O)c3cccnc3)cc2)o1`, the IC50 is over 1000 nM.

As to `O=C(c1ccncn1)c1cc(Cl)ccc1NS(=O)(=O)c1ccc(-c2cnco2)cc1`, the half-maximal inhibitory concentration (IC50) is over 1000 nM.

Take `Cc1cccc(C(=O)c2cc(Cl)ccc2NS(=O)(=O)c2ccc(C3(C)CCOCC3)cc2)n1`: the half-maximal inhibitory concentration (IC50) is under 1000 nM.

For the compound `COc1ccc(S(=O)(=O)Nc2ccc(Cl)cc2C(=O)N2CCNCC2)cc1`, the IC50 is over 1000 nM.

On to `Cn1cc(C(=O)c2cc(Cl)ccc2NS(=O)(=O)c2ccc(C(C)(C)C)cc2)nn1`, for which the IC50 was under 1000 nM.

Turning to `Cc1ccc(C(=O)c2cc(Cl)ccc2NS(=O)(=O)c2ccc(N3CCOCC3)cc2)c[n+]1[O-]`, the half-maximal inhibitory concentration (IC50) was under 1000 nM.

In the case of `O=C(c1ccncc1)c1cc(Cl)ccc1NS(=O)(=O)c1ccc(N2CCCC2)cc1`, the 50% inhibitory concentration (IC50) was under 1000 nM.

For the compound `O=C(c1ccncc1)c1cc(Cl)ccc1NS(=O)(=O)c1ccc(-c2ccsc2)cc1`, the IC50 was under 1000 nM.

Turning to `CCC(C)(C)c1ccc(S(=O)(=O)Nc2ccc(Cl)cc2C(=O)c2ccncc2)cc1`, the 50% inhibitory concentration (IC50) is under 1000 nM.

As for `CC(C)(c1ncco1)c1ccccc1S(=O)(=O)Nc1ccc(Cl)cc1C(=O)c1ccncc1`, the IC50 was under 1000 nM.

Consider `CC(C)(C)c1ccc(S(=O)(=O)Nc2cc(F)c(F)cc2C(=O)c2ccncc2)cc1`, for which the half-inhibitory concentration (IC50) was under 1000 nM.

Turning to `COC(=O)CCc1ccc(S(=O)(=O)Nc2ccc(Cl)cc2C(=O)c2cccnc2)cc1`, the concentration for half-maximal inhibition (IC50) is under 1000 nM.

For the compound `CC(C)(C)c1ccc(S(=O)(=O)Nc2ccc(S(=O)(=O)N3CCCC3)cc2C(=O)c2ccncc2)cc1`, the half-inhibitory concentration (IC50) is over 1000 nM.

In the case of `CCc1ccc(S(=O)(=O)Nc2ccc(Cl)cc2C(=O)c2ccncc2)cc1`, the IC50 is under 1000 nM.

Turning to `O=C(c1cc[n+]([O-])cc1)c1cc(Cl)ccc1NS(=O)(=O)c1ccc(N2CCOCC2)cc1`, the half-inhibitory concentration (IC50) was under 1000 nM.

On to `O=C(c1ccncc1)c1cc(Cl)ccc1NS(=O)(=O)c1ccc(N2CCN(CC(F)(F)F)CC2)cc1`, for which the IC50 was over 1000 nM.

With `Cc1noc(C)c1-c1ccc(S(=O)(=O)Nc2ccc(Cl)cc2C(=O)c2ccncc2)cc1`, the IC50 is under 1000 nM.

For `Cc1cccc(C(=O)c2cc(Cl)ccc2NS(=O)(=O)c2ccc(-c3cnc(C)o3)cc2)n1`, the concentration for half-maximal inhibition (IC50) is over 1000 nM.

Turning to `CC(C)(c1ccc(S(=O)(=O)Nc2ccc(Cl)cc2C(=O)c2cccnc2)cc1)c1ncco1`, the IC50 is under 1000 nM.

As for `Cc1ccc(C(=O)c2cc(Cl)ccc2NS(=O)(=O)c2ccc(C(C)(C)C)cc2)c[n+]1[O-]`, the IC50 is under 1000 nM.

As to `CC(C)(C)c1ccc(S(=O)(=O)Nc2ccc(Cl)cc2C(=O)c2cc[nH]n2)cc1`, the IC50 was under 1000 nM.

Regarding `CC(C)(c1ccc(S(=O)(=O)Nc2ccc(Cl)cc2C(=O)c2cc[n+]([O-])cc2)cc1)c1ncco1`, the IC50 was under 1000 nM.

Regarding `Cc1ccc(C(=O)c2cc(Cl)ccc2NS(=O)(=O)c2ccc(-c3cnc(C)o3)cc2)cn1`, the IC50 is over 1000 nM.

Turning to `COc1ccc(S(=O)(=O)Nc2ccc(Cl)cc2C(=O)NCCc2ccccc2)cc1`, the concentration for half-maximal inhibition (IC50) is under 1000 nM.

`CC(C)Oc1ccc(S(=O)(=O)Nc2ccc(Cl)cc2C(=O)c2cccnc2)cc1`: the IC50 was under 1000 nM.

With `Cn1nncc1C(=O)c1cc(Cl)ccc1NS(=O)(=O)c1ccc(C(C)(C)C)cc1`, the 50% inhibitory concentration (IC50) is under 1000 nM.

With `O=C(c1ccncc1)c1cc(Cl)ccc1NS(=O)(=O)c1ccc(-c2ccco2)cc1`, the IC50 was under 1000 nM.

Regarding `Cc1cc(C(=O)c2cc(Cl)ccc2NS(=O)(=O)c2ccc(C(C)(C)C)cc2)ccn1`, the half-maximal inhibitory concentration (IC50) was under 1000 nM.

`CC(C)(C)c1ccc(S(=O)(=O)Nc2ccc(Cl)cc2C(=O)c2ccnc(S(C)(=O)=O)c2)cc1`: the half-maximal inhibitory concentration (IC50) was under 1000 nM.

Turning to `CC(C)(c1ccc(S(=O)(=O)Nc2ccc(Cl)cc2C(=O)c2ccncc2)cc1)c1cnco1`, the IC50 was under 1000 nM.

`CC(C)(C)c1ccc(S(=O)(=O)Nc2ccc(Cl)cc2C(=O)c2ccc(N3CCOCC3)nc2)cc1`: the IC50 is over 1000 nM.

As for `CSc1ccc(C(=O)c2cc(Cl)ccc2NS(=O)(=O)c2ccc(C(C)(C)C)cc2)cn1`, the half-maximal inhibitory concentration (IC50) was under 1000 nM.

`O=C(c1ccncc1)c1cc(Cl)ccc1NS(=O)(=O)c1ccc(-c2cc3ccccc3[nH]2)cc1`: the IC50 was over 1000 nM.

For the compound `O=C(c1ccncc1)c1cc(Cl)ccc1NS(=O)(=O)c1ccc(OC(F)(F)F)cc1`, the IC50 is under 1000 nM.

Consider `Cc1ncccc1C(=O)c1cc(Cl)ccc1NS(=O)(=O)c1ccc(C2(C)CCOCC2)cc1`, for which the concentration for half-maximal inhibition (IC50) was under 1000 nM.

For `O=C(c1ccncc1)c1cc(Cl)ccc1NS(=O)(=O)c1ccc(N2CCC2)cc1`, the 50% inhibitory concentration (IC50) was under 1000 nM.

In the case of `COC(=O)CCc1ccc(S(=O)(=O)Nc2ccc(Cl)cc2C(=O)c2ccc(C)[n+]([O-])c2)cc1`, the half-maximal inhibitory concentration (IC50) was under 1000 nM.

With `O=C(c1ccncc1)c1cc(Cl)ccc1NS(=O)(=O)c1ccc(CCc2ncco2)cc1`, the concentration for half-maximal inhibition (IC50) was under 1000 nM.

With `C[C@@H]1CN(c2ccc(S(=O)(=O)Nc3ccc(Cl)cc3C(=O)c3ccncc3)cc2F)C[C@H](C)O1`, the IC50 is under 1000 nM.

As to `Cc1ccc(C(=O)c2cc(Cl)ccc2NS(=O)(=O)c2ccc(S(C)(=O)=O)cc2)c[n+]1[O-]`, the IC50 is under 1000 nM.

`CC(=O)c1ccc(S(=O)(=O)Nc2ccc(Cl)cc2C(=O)c2ccc(C)[n+]([O-])c2)cc1`: the IC50 was under 1000 nM.

As to `CC(C)(c1ccc(S(=O)(=O)Nc2ccc(Cl)cc2C(=O)c2cc[n+]([O-])cc2)cc1)c1cnco1`, the IC50 is under 1000 nM.

In the case of `CC(C)(C)c1ccc(S(=O)(=O)Nc2ccc(Br)cc2C(=O)c2ccncc2)cc1`, the half-maximal inhibitory concentration (IC50) was under 1000 nM.

Consider `COc1ccc(S(=O)(=O)Nc2ccc(Cl)cc2C(=O)N2CCCC(Cc3ccccc3)C2)cc1` (configuration not stated), for which the half-maximal inhibitory concentration (IC50) was over 1000 nM.

Regarding `O=C(c1ccncc1)c1cc(Cl)ccc1NS(=O)(=O)c1ccc(N2CCS(=O)(=O)CC2)cc1`, the half-inhibitory concentration (IC50) was over 1000 nM.

Regarding `CC(C)(C)c1ccc(S(=O)(=O)Nc2ccc(F)c(F)c2C(=O)c2cccnc2)cc1`, the half-inhibitory concentration (IC50) was under 1000 nM.
